US20240400555A1 (Initial Therapeutics, Inc., priority 2023, published 2024)

System: HCT-116 Firefly-luciferase reporter cells
Assay: Cellular c-MYC Reporter Assay
Type: cell-based
Settings: Homo sapiens; untitled table following Table 8a; HCT-116 Firefly-luciferase reporter cells, 24 h; read-out: pIC50 (converted)
Summary of the method: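 Compound exposure lasted 24 h at 37 °C, 5% CO2, in complete McCoy's 5A medium containing 0.2% DMSO, beginning 4–6 h post-seeding (5e4 cells/mL). Firefly luciferase signal measured by luminescence after 10 min ONE-Glo development at room temperature.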

Row | IC50 [nM] | SMILES
1 | > 20000 | Cc1cccc2ccnc(N(C(=O)c3ccc(-c4n[nH]c5c4CNCC5)cc3F)[C@@H]3CCCNC3)c12 [Example 296, (R)-2-fluoro-N-(8-methylisoquinolin-1-yl)-N-(piperidin-3-yl)-4-(4,5,6,7-tetrahydro-1H-pyrazolo[4,3-c]pyridin-3-yl)benzamide]
2 | 79.4 | Cc1cccc2ccnc(N(C(=O)c3ccc(-c4cn(C)nn4)cc3F)[C@@H]3CCCNC3)c12 [Example 193, (R)-2-fluoro-4-(1-methyl-1H-1,2,3-triazol-4-yl)-N-(8-methylisoquinolin-1-yl)-N-(piperidin-3-yl)benzamide]
3 | 1260 | Cc1cccc2ccnc(N(C(=O)N3CCC(c4nc(-c5ccccc5)no4)CC3)[C@@H]3CCCNC3)c12 [Example 263]
4 | 263 | Cc1cc(C2CCN(C(=O)N(c3nccc4cccc(C)c34)[C@@H]3CCCNC3)CC2)ccn1 [Example 199, (R)—N-(8-methylisoquinolin-1-yl)-4-(2-methylpyridin-4-yl)-N-(piperidin-3-yl)piperidine-1-carboxamide]
5 | 87.1 | Cc1nnn(-c2ccc(C(=O)N(c3nccc4cccc(C)c34)[C@@H]3CCCNC3)c(F)c2)n1 [Example 195, (R)-2-fluoro-4-(5-methyl-2H-tetrazol-2-yl)-N-(8-methylisoquinolin-1-yl)-N-(piperidin-3-yl) benzamide]
6 | 5250 | Cc1cccc2ccnc(N(C(=O)c3ccc(CO)cc3F)[C@@H]3CCCNC3)c12 [Example 168, (R)-2-fluoro-4-(hydroxymethyl)-N-(8-methylisoquinolin-1-yl)-N-(piperidin-3-yl)benzamide]
7 | 263 | Cc1cccc2ccnc(N(C(=O)c3ccc(-n4nnc(C(C)Cl)n4)cc3F)[C@@H]3CCCNC3)c12 (stereo partly drawn) [Example 298, 4-(5-(1-chloroethyl)-2H-tetrazol-2-yl)-2-fluoro-N-(8-methylisoquinolin-1-yl)-N—((R)-piperidin-3-yl) benzamide]
8 | 166 | Cc1cn(-c2ccc(C(=O)N(c3nccc4cccc(C)c34)[C@@H]3CCCNC3)cc2)nn1 [Example 236, (R)-4-(4-methyl-1H-1,2,3-triazol-1-yl)-N-(8-methylisoquinolin-1-yl)-N-(piperidin-3-yl)benzamide]
9 | 5620 | Cc1cccc2ccnc(N(C(=O)N3CCC(Oc4ccccc4)CC3)[C@@H]3CCCNC3)c12 [Example 189, (R)—N-(8-methylisoquinolin-1-yl)-4-phenoxy-N-(piperidin-3-yl)-1-carboxamide]
10 | 7240 | Cc1cccc2ccnc(N(C(=O)N3CCCCC3C(=O)N(C)C)[C@@H]3CCCNC3)c12 (stereo partly drawn) [Example 258, N^2,N^2-dimethyl-N^1-(8-methylisoquinolin-1-yl)-N1-((R)-piperidin-3-yl)piperidine-1,2-dicarboxamide]

More lines, now with the values behind:

Row | SMILES | IC50 [nM]
11 | O=C(c1ccc(-n2nnc3cccnc32)cc1F)N(c1nccc2ccc(CO)cc12)[C@@H]1CCCNC1 [Example 154, (R)-4-(3H-[1,2,3]triazolo[4,5-b]pyridin-3-yl)-2-fluoro-N-(7-(hydroxymethyl)isoquinolin-1-yl)-N-(piperidin-3-yl)benzamide] | 1050
12 | COc1ccc2c(N(C(=O)c3ccc(-n4nnc5cccnc54)cc3F)[C@@H]3CCCNC3)nccc2c1 [Example 145, (R)-4-(3H-[1,2,3]triazolo[4,5-b]pyridin-3-yl)-2-fluoro-N-(6-methoxyisoquinolin-1-yl)-N-(piperidin-3-yl)benzamide] | 525
13 | Cc1cccc2ccnc(N(C(=O)c3cccc(Cn4ccnn4)c3F)[C@@H]3CCCNC3)c12 [Example 271, (R)-3-((1H-1,2,3-triazol-1-yl)methyl)-2-fluoro-N-(8-methylisoquinolin-1-yl)-N-(piperidin-3-yl)benzamide] | 4790
14 | Cc1cccc2ccnc(N(C(=O)c3ccc(-n4nnc5ccc(C#N)nc54)cc3F)[C@@H]3CCCNC3)c12 [Example 191, (R)-4-(5-cyano-3H-[1,2,3]triazolo[4,5-b]pyridin-3-yl)-2-fluoro-N-(8-methylisoquinolin-1-yl)-N-(piperidin-3-yl)benzamide] | 10.7
15 | Cc1cccc2ccnc(N(C(=O)c3cccc(Cn4nc5cccnc5n4)c3F)[C@@H]3CCCNC3)c12 [Example 273, (R)-3-((2H-[1,2,3]triazolo[4,5-b]pyridin-2-yl)methyl)-2-fluoro-N-(8-methylisoquinolin-1-yl)-N-(piperidin-3-yl)benzamide] | 1700
16 | Cc1cccc2ccnc(N(C(=O)c3ccc(-c4cncc(C#N)n4)cc3F)[C@@H]3CCCNC3)c12 [Example 198, (R)-2-fluoro-N-(8-methylisoquinolin-1-yl)-4-(6-cyanopyrazin-2-yl)-N-(piperidin-3-yl)benzamide] | 617
17 | Cc1cccc2ccnc(N(C(=O)c3ccc(Nc4ccc[nH]c4=O)cc3F)[C@@H]3CCCNC3)c12 [Example 132, (R)-2-fluoro-N-(8-methylisoquinolin-1-yl)-4-((2-oxo-1,2-dihydropyridin-3-yl)amino)-N-(piperidin-3-yl)benzamide] | 1580
18 | Cn1cc(-c2ccc3c(N(C(=O)c4ccc(-n5nnc6cccnc65)cc4F)[C@@H]4CCCNC4)nccc3c2)cn1 [Example 97, (R)-4-(3H-[1,2,3]triazolo[4,5-b]pyridin-3-yl)-2-fluoro-N-(6-(1-methyl-1H-pyrazol-4-yl)isoquinolin-1-yl)-N-(piperidin-3-yl)benzamide] | 380
19 | Cn1cc(-c2ccc(C(=O)N(c3ncccc3-c3cc[nH]n3)[C@@H]3CCCNC3)cc2)nn1 [Example 101, (R)—N-(3-(1H-pyrazol-3-yl)pyridin-2-yl)-4-(1-methyl-1H-1,2,3-triazol-4-yl)-N-(piperidin-3-yl)benzamide] | > 10000
20 | CCOC(=O)/C=C/c1ccc2ccnc(N(C(=O)c3ccc(-n4nnc5cccnc54)cc3F)[C@@H]3CCCNC3)c2c1 [Example 130, ethyl (R,E)-3-(1-(4-(3H-[1,2,3]triazolo[4,5-b]pyridin-3-yl)-2-fluoro-N-(piperidin-3-yl)benzamido)isoquinolin-7-yl)acrylate] | 2290
21 | Cc1cc(C)c2c(N(C(=O)c3ccc(-n4nnc5cccnc54)cc3F)[C@@H]3CCCNC3)nccc2c1 [Example 254, (R)-4-(3H-[1,2,3]triazolo[4,5-b]pyridin-3-yl)-N-(6,8-dimethylisoquinolin-1-yl)-2-fluoro-N-(piperidin-3-yl)benzamide] | 61.7
22 | Cc1cccc2ccnc(N(C(=O)c3ccc(-n4nnc5cccnc54)cc3)[C@@H]3CC[C@@H](C)NC3)c12 [Example 226, 4-(3H-[1,2,3]triazolo[4,5-b]pyridin-3-yl)-N-(8-methylisoquinolin-1-yl)-N-((3R,6R)-6-methylpiperidin-3-yl)benzamide] | > 20000
23 | NC(=O)CCc1ccc2ccnc(N(C(=O)c3ccc(-n4nnc5cccnc54)cc3F)[C@@H]3CCCNC3)c2c1 [Example 148, (R)-4-(3H-[1,2,3]triazolo[4,5-b]pyridin-3-yl)-N-(7-(3-amino-3-oxopropyl)isoquinolin-1-yl)-2-fluoro-N-(piperidin-3-yl)benzamide] | 13800
24 | NC(=O)/C=C/c1ccc2ccnc(N(C(=O)c3ccc(-n4nnc5cccnc54)cc3F)[C@@H]3CCCNC3)c2c1 [Example 149, (R,E)-4-(3H-[1,2,3]triazolo[4,5-b]pyridin-3-yl)-N-(7-(3-amino-3-oxoprop-1-en-1-yl)isoquinolin-1-yl)-2-fluoro-N-(piperidin-3-yl)benzamide] | 3800
25 | O=C(c1ccc(-n2nnc3cccnc32)cc1F)N(c1nccc2sc(-c3cn[nH]c3)cc12)[C@@H]1CCCNC1 [Example 160, (R)—N-(2-(1H-pyrazol-4-yl)thieno[3,2-c]pyridin-4-yl)-4-(3H-[1,2,3]triazolo[4,5-b]pyridin-3-yl)-2-fluoro-N-(piperidin-3-yl)benzamide] | 447
26 | Cn1ncc2ccnc(N(C(=O)c3ccc(Nc4ncccn4)cc3F)[C@@H]3CCCNC3)c21 [Example 119, (R)-2-fluoro-N-(1-methyl-1H-pyrazolo[3,4-c]pyridin-7-yl)-N-(piperidin-3-yl)-4-(pyrimidin-2-ylamino)benzamide] | 1410
27 | O=C(c1ccc(-n2nnc3cccnc32)cc1F)N(c1ncccc1/C=C/CCO)[C@@H]1CCCNC1 [Example 104, 2-fluoro-N-[3-[(E)-4-hydroxybut-1-enyl]-2-pyridyl]-N-[(3R)-3-piperidyl]-4-(triazolo[4,5-b]pyridin-3-yl)benzamide] | 8910
28 | Cc1cccc2ccnc(N(C(=O)c3ccc(-n4nnc5cccnc54)cc3)[C@H]3CCCCNC3)c12 [Example 227, (S)-4-(3H-[1,2,3]triazolo[4,5-b]pyridin-3-yl)-N-(azepan-3-yl)-N-(8-methylisoquinolin-1-yl)benzamide] | > 20000
29 | CNC(=O)OCc1ccc2ccnc(N(C(=O)c3ccc(-n4nnc5cccnc54)cc3F)[C@@H]3CCCNC3)c2c1 [Example 153, (R)-(1-(4-(3H-[1,2,3]triazolo[4,5-b]pyridin-3-yl)-2-fluoro-N-(piperidin-3-yl)benzamido)isoquinolin-7-yl)methyl methylcarbamate] | 2400
30 | CC(C)(C)[Si](C)(C)OC/C=C/c1cc2c(N(C(=O)c3ccc(-n4nnc5cccnc54)cc3F)[C@@H]3CCCNC3)nccc2s1 [Example 99, (R,E)-4-(3H-[1,2,3]triazolo[4,5-b]pyridin-3-yl)-N-(2-(3-((tert-butyldimethylsilyl)oxy)prop-1-en-1-yl)thieno[3,2-c]pyridin-4-yl)-2-fluoro-N-(piperidin-3-yl)benzamide] | 2000
31 | O=C(c1ccc(-n2nnc3cccnc32)cc1F)N(c1nccc2cc(CO)ccc12)[C@@H]1CCCNC1 [Example 146, (R)-4-(3H-[1,2,3]triazolo[4,5-b]pyridin-3-yl)-2-fluoro-N-(6-(hydroxymethyl)isoquinolin-1-yl)-N-(piperidin-3-yl)benzamide] | 562
32 | Cc1cccc2ccnc(N(C(=O)c3ccc(-c4cnn(C)c4C(=O)O)cc3)[C@@H]3CCCNC3)c12 [Example 294, 2-methyl-4-[4-[(8-methyl-1-isoquinolyl)-[(3R)-3-piperidyl]carbamoyl]phenyl] pyrazole-3-carboxylic acid] | > 10000
